Source: patent USRE32455E, “A-21978 antibiotics and process for their production” (priority 1985, dated 1987)
In brackets after ≈: the same amount, converted by molar mass. Several values for one entry are separate records, joined by “and”; a condition that tells them apart may be missing. Identical values can stand only once. Like-named read-outs stand apart in the source and are kept apart here.

Tests used:
[1] = test system: Streptococcus faecalis (Guze); experiment: In vitro susceptibility (MIC) of the S. faecalis Guze strain; assay type: cell-based
[2] = test system: Staphylococcus aureus 3055; experiment: MIC, standard agar-dilution test; assay type: cell-based; conditions: Table XI, sodium salt
Streptococcus pneumoniae [3] = experiment: Experimental bacterial infection in mice, ED50; assay type: in vivo; conditions: two doses, subcutaneous administration
Protocol: (§1) When two doses of test compound were administered to mice in illustrative infections, the activity observed was measured as an ED50 value [effective dose in mg/kg to protect fifty percent of the test animals: See Warren Wick, et al., J. Bacteriol. 81, 233-235 (1961)].

Staphylococcus aureus [4] = experiment: Experimental bacterial infection in mice, ED50; assay type: in vivo; conditions: two doses, subcutaneous administration
Protocol: as §1

Streptococcus pyogenes [5] = experiment: Experimental bacterial infection in mice, ED50; assay type: in vivo; conditions: two doses
Protocol: as §1

Actinomyces isaelii = experiment: MIC anaerobic bacteria, standard agar-dilution test; assay type: cell-based
[6] = test system: Streptococcus faecalis (Guze); experiment: Streptococcus faecalis descending rat pyelonephritis test; assay type: in vivo, rat (female albino, Cox-Wistar)
Protocol: In this test, the bacterial culture used was Streptococcus faecalis (Guze). The culture was grown on Trypticase soy agar (BBL), suspended in brain heart infusion broth (BBL), divided into 0.2-ml portions, and frozen in liquid nitrogen. Bacterial suspensions for rat inoculations were prepared daily by seeding a 50-ml flask of trypticase soy broth (BBL) from a frozen ampoule and growing the culture overnight at 37° C. on a shaker. The S. faecalis culture was diluted to 5×10^8 colony-forming units per ml. Test compounds were injected subcutaneously once daily for seven days. All compounds were suspended in 0.125% carboxymethylcellulose.
The experimental rat infections were accomplished by the following procedure. Female, random-bred albino rats (Cox-Wistar) weighing 190 to 210 g were anesthetized by intraperitoneal injection of 12 mg of sodium methohexital supplemented as necessary. The experimental pyelonephritis model was based on the studies of Guze and Beeson in which the left ureter was occluded for 20 min, followed by injection of 0.5 ml of the test organism in the femoral vein. Antimicrobial therapy was commenced 4 to 5 hrs postinfection. Four hours after the last treatment the rats were sacrificed, and the left kidney was removed and homogenized in a Duall grinder containing 9 ml of physiological saline. This represented a 10^-1 dilution of the kidney tissue. Additional 10-fold dilutions in saline were based on the anticipated bacterial cells present in the tissue homogenate. Finally, duplicate agar pour plates were made from several of these dilutions, and the plates were incubated overnight at 37° C. The therapeutic results were expressed in two ways: (i) the percentage of rats with kidney counts of less than 10^2 per g of kidney tissue, referred to as "cures," and (ii) the percentage of rats with at least a 4-log10 reduction in bacterial titer compared with infected control kidneys. Control rats were treated with 0.125% carboxymethylcellulose only. Viable cell counts in kidney tissue from control rats with S. faecalis ranged from 1.2×10^8 to 4.6×10^8 per g of homogenized tissue.

[7] = test system: Group D Streptococcus 282; experiment: MIC, standard agar-dilution test; assay type: cell-based; conditions: Table XI, sodium salt
[8] = test system: Streptococcus pyogenes C203; experiment: MIC, standard agar-dilution test; assay type: cell-based; conditions: Table XI, sodium salt
[9] = test system: pathogenic organisms, particularly gram-positive bacteria; experiment: Inhibition of growth of pathogenic organisms; assay type: cell-based
Eubacterium aerofaciens = experiment: MIC anaerobic bacteria, standard agar-dilution test; assay type: cell-based
[10] = test system: Group D Streptococcus 282; experiment: MIC, standard broth-dilution test; assay type: cell-based; conditions: Table XII, sodium salt
Toxicity (LD50) in rat = assay type: in vivo; conditions: IV
Fusobacterium symbiosum = experiment: MIC anaerobic bacteria, standard agar-dilution test; assay type: cell-based
Clostridium perfringens = assay type: cell-based; conditions: anaerobic, agar-dilution
[11] = test system: Staphylococcus aureus 3055; experiment: MIC, standard broth-dilution test; assay type: cell-based; conditions: Table XII, sodium salt
[12] = test system: Viridans Streptococcus 9943; experiment: MIC, standard agar-dilution test; assay type: cell-based; conditions: Table XI, sodium salt
Peptococcus prevoti = experiment: MIC anaerobic bacteria, standard agar-dilution test; assay type: cell-based
Bacteroides fragilis = experiment: as above; assay type: cell-based
[13] = test system: Viridans Streptococcus 9943; experiment: MIC, standard broth-dilution test; assay type: cell-based; conditions: Table XII, sodium salt
[14] = test system: Neisseria gonorrhoeae 111076-4; experiment: MIC, standard agar-dilution test; assay type: cell-based; conditions: Table XI, sodium salt
[15] = test system: Streptococcus pneumoniae Park I; experiment: MIC, standard agar-dilution test; assay type: cell-based; conditions: Table XI, sodium salt
Streptococcus pneumoniae [16] = experiment: MIC, agar dilution (Table XV); assay type: cell-based
[17] = Electrometric titration in 66% aqueous dimethylformamide; assay type: physicochemical; conditions: 66% DMF; Na salt; factors: two determinations
Micrococcus luteus = experiment: Bioassay, paper-disc agar-diffusion; conditions: Na salts; Table VIII
Staphylococcus aureus [18] = experiment: MIC, agar dilution (Table XV); assay type: cell-based
Text: ^1 MIC = minimum inhibitory concentration (μg/ml), agar dilution

[19] = test system: Streptococcus pneumoniae Park I; experiment: MIC, standard broth-dilution test; assay type: cell-based; conditions: Table XII, sodium salt
Propionibacterium acnes = experiment: MIC anaerobic bacteria, standard agar-dilution test; assay type: cell-based
Clostridium septicum = experiment: as above; assay type: cell-based
[20] = test system: Streptococcus pyogenes C203; experiment: MIC, standard broth-dilution test; assay type: cell-based; conditions: Table XII, sodium salt
Toxicity (LD50) in mouse = assay type: in vivo
Streptococcus pyogenes [21] = experiment: MIC, agar dilution (Table XV); assay type: cell-based
[22] = test system: Fusobacterium necrophorum; experiment: MIC anaerobic bacteria, standard agar-dilution test; assay type: cell-based
[23] = test system: Peptostreptococcus intermedius; experiment: as above; assay type: cell-based
[24] = test system: Peptostreptococcus anaerobius; experiment: as above; assay type: cell-based
[25] = test system: Peptococcus asaccharolyticus; experiment: as above; assay type: cell-based
A21978.6 = experiment: Antibiotic sensitivity, sensitivity discs on seeded agar plates; assay type: cell-based, Streptomyces roseosporus; conditions: Conc./disc: erythromycin 15 μg, cephalothin 30 μg, lincomycin 2 μg, nystatin 100 units, polymyxin B 300 units, streptomycin 10 μg, tetracycline 30 μg, vancomycin "+μg"; note: key: +: sensitive (zones of inhibition); -: resistant (no zones of inhibition)
Protocol: Temperature range, NaCl tolerance, pH range, and antibiotic sensitivity were done using ISP #2 agar medium. The range of temperatures were: 25°, 28°, 30°, 34°, 37°, 40°, 45°, 50° and 55° C. NaCl tolerance was measured by adding NaCl to the agar to equal: 0, 1, 2, 3, 4, 5, 6, 8, 10 and 12%. These were incubated at 30° C. The pH range was measured by adjusting the agar from pH 3.0 to 11.0 at increments of 1.0 pH units, just prior to pouring. Antibiotic sensitivity was determined using sensitivity discs padded onto seeded agar plates.

S. roseosporus = experiment: as above; assay type: cell-based, Streptomyces roseosporus; conditions: Conc./disc: erythromycin 15 μg, cephalothin 30 μg, lincomycin 2 μg, nystatin 100 units, polymyxin B 300 units, streptomycin 10 μg, tetracycline 30 μg, vancomycin "+μg"
Protocol: Temperature range, NaCl tolerance, pH range, and antibiotic sensitivity were done using ISP #2 agar medium. The range of temperatures were: 25°, 28°, 30°, 34°, 37°, 40°, 45°, 50° and 55° C. […] These were incubated at 30° C. The pH range was measured by adjusting the agar from pH 3.0 to 11.0 at increments of 1.0 pH units, just prior to pouring. Antibiotic sensitivity was determined using sensitivity discs padded onto seeded agar plates.
Throughout, for Antibiotic sensitivity: key: +: sensitive (zones of inhibition); -: resistant (no zones of inhibition).

CCC(C)CCCCCCC(=O)N[C@@H](Cc1c[nH]c2ccccc12)C(=O)NC(CC(N)=O)C(=O)N[C@@H](CC(=O)O)C(=O)N[C@@H]1C(=O)NCC(=O)N[C@@H](CCCN)C(=O)N[C@@H](CC(=O)O)C(=O)N[C@H](C)C(=O)N[C@@H](CC(=O)O)C(=O)NCC(=O)N[C@H](CO)C(=O)N[C@@H]([C@H](C)CC(=O)O)C(=O)N[C@@H](CC(=O)c2ccccc2N)C(=O)O[C@@H]1C (stereo in doubt) [Factor C1]
MIC ([1]; Table XVI): 1.0 µg/mL (≈ 0.612 µM)
MIC [2]: 0.5 µg/mL
ED50 (Streptococcus pneumoniae [3]): 0.3 mg/kg
ED50 (Staphylococcus aureus [4]): 0.22 mg/kg
ED50 (Streptococcus pyogenes [5]): 0.064 mg/kg
ED50 (Streptococcus pyogenes [5]; oral administration): 93 mg/kg
MIC (Actinomyces isaelii): 4 µg/mL (≈ 2.45 µM)
Percent of Rats Cured ([6]; 1.0 mg/kg × 7, subcutaneous): 50%
Percent of Rats with a 4-Log Titer Decrease ([6]; 1.0 mg/kg × 7, subcutaneous): 50%
MIC [7]: 1.0 µg/mL
MIC [8]: 0.13 µg/mL
growth inhibition [9]: inhibit the growth of certain pathogenic organisms, particularly gram-positive bacteria
MIC (Eubacterium aerofaciens): 16 µg/mL (≈ 9.79 µM)
MIC [10]: 2.0 µg/mL
LD50 (Toxicity (LD50) in rat): 479 ± 32 mg/kg
MIC (Fusobacterium symbiosum): > 128 µg/mL
MIC (Clostridium perfringens): 16 µg/mL (≈ 9.79 µM)
MIC [11]: 1.0 µg/mL
MIC [12]: 0.5 µg/mL
MIC (Peptococcus prevoti): 2 µg/mL (≈ 1.22 µM)
MIC (Bacteroides fragilis): > 128 µg/mL
MIC [13]: 32.0 µg/mL
MIC [14]: 16.0 µg/mL
MIC [15]: 0.13 µg/mL
MIC (Streptococcus pneumoniae [16]): 0.13 µg/mL (≈ 0.0795 µM)
pKa (first group) [17]: 5.7 and 5.9
Bioassay (Micrococcus luteus) (Micrococcus luteus): 1663 units/mg
MIC (Staphylococcus aureus [18]): 0.5 µg/mL (≈ 0.306 µM)
MIC [19]: 2.0 µg/mL
MIC (Propionibacterium acnes): 8 µg/mL (≈ 4.89 µM)
MIC (Clostridium septicum): 4 µg/mL (≈ 2.45 µM)
MIC [20]: 0.5 µg/mL
LD50 (Toxicity (LD50) in mouse; IV): > 250 mg/kg
LD50 (Toxicity (LD50) in mouse; SC): > 365 mg/kg
MIC (Streptococcus pyogenes [21]): 0.13 µg/mL (≈ 0.0795 µM)
MIC [22]: 64 µg/mL (≈ 39.2 µM)
MIC [23]: 4 µg/mL (≈ 2.45 µM)
MIC [24]: 2 µg/mL (≈ 1.22 µM)
MIC [25]: 4 µg/mL (≈ 2.45 µM)

CC(=O)OCC1=C(C(=O)O)N2C(=O)[C@@H](NC(=O)Cc3cccs3)[C@H]2SC1 [Cephalothin]
Antibiotic sensitivity (A21978.6): +
Antibiotic sensitivity (S. roseosporus): +

CC[C@H]1OC(=O)[C@H](C)[C@@H](O[C@H]2C[C@@](C)(OC)[C@@H](O)[C@H](C)O2)[C@H](C)[C@@H](O[C@@H]2O[C@H](C)C[C@H](N(C)C)[C@H]2O)[C@](C)(O)C[C@@H](C)C(=O)[C@H](C)[C@@H](O)[C@]1(C)O [Erythromycin, reference compound]
Antibiotic sensitivity (A21978.6): +
MIC (Streptococcus pneumoniae [16]; Streptococcus pneumoniae, read-out: MIC): 0.5 µg/mL (≈ 0.681 µM)
MIC (Staphylococcus aureus [18]; Staphylococcus aureus, read-out: MIC): 0.13 µg/mL (≈ 0.177 µM)
MIC (Streptococcus pyogenes [21]; Streptococcus pyogenes, read-out: MIC): 0.13 µg/mL (≈ 0.177 µM)
Antibiotic sensitivity (S. roseosporus): +

CCC[C@@H]1C[C@@H](C(=O)N[C@@H]([C@H]2O[C@H](SC)[C@H](O)[C@@H](O)[C@H]2O)[C@@H](C)O)N(C)C1 [Lincomycin]
Antibiotic sensitivity (A21978.6): -
Antibiotic sensitivity (S. roseosporus): -

C[C@@H]1[C@H](O)[C@@H](C)/C=C/C=C/CC/C=C/C=C/C=C/C=C/C(O[C@H]2O[C@H](C)[C@@H](O)[C@H](N)[C@@H]2O)CC2O[C@](O)(CC(O)C(O)CCC(O)CC(O)CC(O)CC(=O)O[C@H]1C)CC(O)C2C(=O)O (stereo partly shown) [Nystatin]
Antibiotic sensitivity (A21978.6): -
Antibiotic sensitivity (S. roseosporus): -

[H]/N=C(/N)N[C@H]1[C@H](O)[C@@H](O)[C@H](O[C@@H]2O[C@@H](C)[C@](O)(C=O)[C@H]2O[C@@H]2O[C@@H](CO)[C@H](O)[C@@H](O)[C@@H]2NC)[C@@H](N/C(N)=N\[H])[C@@H]1O [Streptomycin]
Antibiotic sensitivity (A21978.6): +
Antibiotic sensitivity (S. roseosporus): +

CN(C)C1C(=O)C(C(N)=O)=C(O)C2(O)C(=O)C3=C(O)c4c(O)cccc4C(C)(O)C3CC12 (stereo not shown) [Tetracycline]
Antibiotic sensitivity (A21978.6): +
Antibiotic sensitivity (S. roseosporus): +

CN[C@H](CC(C)C)C(=O)N[C@H]1C(=O)N[C@@H](CC(N)=O)C(=O)N[C@H]2C(=O)N[C@H]3C(=O)N[C@H](C(=O)N[C@H](C(=O)O)c4cc(O)cc(O)c4-c4cc3ccc4O)[C@H](O)c3ccc(c(Cl)c3)Oc3cc2cc(c3O[C@@H]2O[C@H](CO)[C@@H](O)[C@H](O)[C@H]2O[C@H]2C[C@](C)(N)[C@H](O)[C@H](C)O2)Oc2ccc(cc2Cl)[C@H]1O [Vancomycin, reference compound]
MIC ([1]; Enterococcus faecalis): 1 µg/mL (≈ 0.69 µM)
Percent of Rats Cured ([6]; 12.0 mg/kg × 7, subcutaneous): 33%
Percent of Rats with a 4-Log Titer Decrease ([6]; 12.0 mg/kg × 7, subcutaneous): 55%
Antibiotic sensitivity (A21978.6): +
Antibiotic sensitivity (S. roseosporus): +

Polymyxin B
Antibiotic sensitivity (A21978.6): +
Antibiotic sensitivity (S. roseosporus): -
